In patent US8669271B2 (Boehringer Ingelheim International GmbH, priority 2010, dated 2014):

The molecules below were run against T1, human GPR119 (Homo sapiens, UniProt Q8TDV5) (assay: AlphaScreen cAMP assay in Min-6/hGPR119 cells (activation of GPR119, intracellular cAMP)). Details: MIN6 cells stably transfected with human GPR119; cAMP by AlphaScreen after 45 minutes incubation at room temperature.
T1 construct: expression vector for human GPR119 cDNA (Acc. No. NP_848566); expressed in transfected cells
T1 sequence (Q8TDV5 1-335): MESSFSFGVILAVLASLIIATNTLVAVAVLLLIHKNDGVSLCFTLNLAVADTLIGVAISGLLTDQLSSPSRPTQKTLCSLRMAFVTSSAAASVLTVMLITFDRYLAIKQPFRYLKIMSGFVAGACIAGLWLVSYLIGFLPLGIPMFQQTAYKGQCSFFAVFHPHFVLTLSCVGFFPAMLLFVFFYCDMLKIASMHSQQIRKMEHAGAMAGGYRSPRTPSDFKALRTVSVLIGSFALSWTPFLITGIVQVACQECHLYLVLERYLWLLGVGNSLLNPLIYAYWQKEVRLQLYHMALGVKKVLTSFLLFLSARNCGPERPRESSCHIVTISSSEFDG
Format: cell-based
Procedure: The compounds of formula I according to the invention modulate the activity of the G-protein-coupled receptor GPR119. The effect of the compounds on the activation of GPR119 and on the stimulation of intracellular cAMP concentration is determined using the AlphaScreen cAMP Assay Kit (Cat.No.#6760625R) made by PerkinElmer.
MIN6 cells [Miyazaki J et al. Endocrinology. 1990 July; 127(1):126-32] are stably transfected with an expression vector for human GPR119 cDNA (Acc. No. NP_848566). Min-6/hGPR119 cells are cultured in DMEM, 10% FBS, 50 μM β-mercaptoethanol, 0.3 mg/mL Geniticin, 2 mM GlutaMAX at 37° C. 5% CO2. For the assay, the cells are seeded in Optiplates (white, 384-well, 160W— barcoded, TC, sterile with lid, Cat.No.#6007688 (Perkin Elmer); 10000 cells/well; 50 μl). The plates covered with lids are then incubated for 24 hours at 37° C./5% CO2. After the medium is aspirated from the wells completely, 10 μl of the test compound are added, the compounds are diluted using stimulating buffer (140 mM NaCl, 3.6 mM KCl, 0.5 mM NaH2PO4, 0.5 mM MgSO4, 1.5 mM CaCl2, 10 mM Hepes, 5 mM NaHCO3; pH 7.4. 0.5 mM IBMX and 0.1% BSA, the final DMSO concentration is 1%). After 45 minutes incubation at room temperature (approx. 20° C.), the cAMP concentrations are determined using the AlphaScreen cAMP Assay Kit (Cat.No.#6760625R from PerkinElmer).
`CC(C)(C)OC(=O)N1CCC(C2Cc3cc(-c4ccc(CC#N)cc4)ncc3O2)CC1` (stereo not shown) [Example 31, 4-[5-(4-Cyanomethyl-phenyl)-2,3-dihydro-furo[2,3-c]pyridin-2-yl]-piperidine-1-carboxylic acid tert-butyl ester] showed an EC50 of 39 nM.
Work on `CCNC(=O)c1ccc(-c2cc3c(cn2)OC(C2CCN(C(=O)OC(C)(C)C)CC2)C3)cc1` (stereo not shown) [Example 32, 4-[5-(4-Ethylcarbamoyl-phenyl)-2,3-dihydro-furo[2,3-c]pyridin-2-yl]-piperidine-1-carboxylic acid tert-butyl ester] yielded an EC50 of 21 nM.
`CC(C)(C)OC(=O)N1CCC(C2Cc3cc(-c4cncnc4)ncc3O2)CC1` (stereo not shown) [Example 33, 4-(5-Pyrimidin-5-yl-2,3-dihydro-furo[2,3-c]pyridin-2-yl)-piperidine-1-carboxylic acid tert-butyl ester] was tested, and the EC50 was 190 nM.
With `CC(C)(C)OC(=O)N1CCC(C2Cc3cc(-c4ccc(S(C)(=O)=O)c(F)c4)ncc3O2)CC1` (stereo not shown) [Example 34, 4-[5-(3-Fluoro-4-methanesulfonyl-phenyl)-2,3-dihydro-furo[2,3-c]pyridin-2-yl]-piperidine-1-carboxylic acid tert-butyl ester] the EC50 was 9 nM.
`CC(C)(C)OC(=O)N1CCC(C2Cc3cc(-c4ccc(CS(C)(=O)=O)cc4F)ncc3O2)CC1` (stereo not shown) [Example 35, 4-[5-(2-Fluoro-4-methanesulfonylmethyl-phenyl)-2,3-dihydro-furo[2,3-c]pyridin-2-yl]-piperidine-1-carboxylic acid tert-butyl ester] gave an EC50 of 17 nM.
With `CNS(=O)(=O)c1ccc(-c2cc3c(cn2)OC(C2CCN(C(=O)OC(C)(C)C)CC2)C3)cc1` (stereo not shown) [Example 36, 4-[5-(4-Methylsulfamoyl-phenyl)-2,3-dihydro-furo[2,3-c]pyridin-2-yl]-piperidine-1-carboxylic acid tert-butyl ester] the EC50 was 33 nM.
In the case of `CC(C)(C)OC(=O)N1CCC(C2Cc3cc(-c4ccc(NS(C)(=O)=O)cc4)ncc3O2)CC1` (stereo not shown) [Example 37, 4-[5-(4-Methanesulfonylamino-phenyl)-2,3-dihydro-furo[2,3-c]pyridin-2-yl]-piperidine-1-carboxylic acid tert-butyl ester], the EC50 is reported as 31 nM.
For `Cc1noc(C)c1-c1cc2c(cn1)OC(C1CCN(C(=O)OC(C)(C)C)CC1)C2` (stereo not shown) [Example 38, 4-[5-(3,5-Dimethyl-isoxazol-4-yl)-2,3-dihydro-furo[2,3-c]pyridin-2-yl]-piperidine-1-carboxylic acid tert-butyl ester], the EC50 was 573 nM.
For `CC(C)(C)OC(=O)N1CCC(C2Cc3cc(-c4cnco4)ncc3O2)CC1` (stereo not shown) [Example 39, 4-(5-Oxazol-5-yl-2,3-dihydro-furo[2,3-c]pyridin-2-yl)-piperidine-1-carboxylic acid tert-butyl ester], the EC50 was 152 nM.
Work on `CC(C)(C)OC(=O)N1CCC(C2Cc3cc(-c4ccc(C(N)=O)cn4)ccc3O2)CC1` (stereo not shown) [Example 40, 4-[5-(5-Carbamoyl-pyridin-2-yl)-2,3-dihydro-benzofuran-2-yl]-piperidine-1-carboxylic acid tert-butyl ester] yielded an EC50 of 158 nM.
Work on `CC(C)(C)OC(=O)N1CCC(C2Cc3cc(-c4ccncc4)ncc3O2)CC1` (stereo not shown) [Example 41, 4-(5-Pyridin-4-yl-2,3-dihydro-furo[2,3-c]pyridin-2-yl)-piperidine-1-carboxylic acid tert-butyl ester] yielded an EC50 of 34 nM.
In the case of `CNC(=O)c1ccc(-c2ccc3c(c2)CC(C2CCN(C(=O)OC(C)(C)C)CC2)O3)nc1` (stereo not shown) [Example 42, 4-[5-(5-Methylcarbamoyl-pyridin-2-yl)-2,3-dihydro-benzofuran-2-yl]-piperidine-1-carboxylic acid tert-butyl ester], the EC50 is reported as 64 nM.
With `CC(C)(C)OC(=O)N1CCC(C2Cc3cc(-c4ccncc4C#N)ccc3O2)CC1` (stereo not shown) [Example 43, 4-[5-(3-Cyano-pyridin-4-yl)-2,3-dihydro-benzofuran-2-yl]-piperidine-1-carboxylic acid tert-butyl ester] the EC50 was 269 nM.
`CC(C)(C)OC(=O)N1CCC(C2Cc3cc(-c4ccc(C#N)nc4)ncc3O2)CC1` (stereo not shown) [Example 44, 4-[5-(6-Cyano-pyridin-3-yl)-2,3-dihydro-furo[2,3-c]pyridin-2-yl]-piperidine-1-carboxylic acid tert-butyl ester] was tested, and the EC50 was 30 nM.
`CC(C)(C)OC(=O)N1CCC(C2Cc3cc(-c4cccnc4)ncc3O2)CC1` (stereo not shown) [Example 45, 4-(5-Pyridin-3-yl-2,3-dihydro-furo[2,3-c]pyridin-2-yl)-piperidine-1-carboxylic acid tert-butyl ester] gave an EC50 of 410 nM.
`CC(C)(C)OC(=O)N1CCC(C2Cc3cc(-c4ccc(C#N)cc4)ncc3O2)CC1` (stereo not shown) [Example 46, 4-[5-(4-Cyano-phenyl)-2,3-dihydro-furo[2,3-c]pyridin-2-yl]-piperidine-1-carboxylic acid tert-butyl ester] gave an EC50 of 15 nM.
`CC(C)(C)OC(=O)N1CCC(C2Cc3cc(-c4ccnc(F)c4)ncc3O2)CC1` (stereo not shown) [Example 47, 4-[5-(2-Fluoro-pyridin-4-yl)-2,3-dihydro-furo[2,3-c]pyridin-2-yl]-piperidine-1-carboxylic acid tert-butyl ester] was tested, and the EC50 was 8 nM.
For `CC(C)(C)OC(=O)N1CCC(C2Cc3cc(-c4ccc(CS(C)(=O)=O)cn4)ccc3O2)CC1` (stereo not shown) [Example 48, 4-[5-(5-Methanesulfonylmethyl-pyridin-2-yl)-2,3-dihydro-benzofuran-2-yl]-piperidine-1-carboxylic acid tert-butyl ester], the EC50 was 53 nM.
Work on `CC(C)(C)OC(=O)N1CCC(C2Cc3cc(-c4ccc(CS(C)(=O)=O)cc4)ncc3O2)CC1` (stereo not shown) [Example 49, 4-[5-(4-Methanesulfonylmethyl-phenyl)-2,3-dihydro-furo[2,3-c]pyridin-2-yl]-piperidine-1-carboxylic acid tert-butyl ester] yielded an EC50 of 22 nM.
`CC(C)(C)OC(=O)N1CCC(C2Cc3cc(-c4ccnnc4)ccc3O2)CC1` (stereo not shown) [Example 50, 4-(5-Pyridazin-4-yl-2,3-dihydro-benzofuran-2-yl)-piperidine-1-carboxylic acid tert-butyl ester] showed an EC50 of 161 nM.
`CC(C)(C)OC(=O)N1CCC(C2Cc3cc(-c4ccncc4F)ncc3O2)CC1` (stereo not shown) [Example 51, 4-[5-(3-Fluoro-pyridin-4-yl)-2,3-dihydro-furo[2,3-c]pyridin-2-yl]-piperidine-1-carboxylic acid tert-butyl ester] showed an EC50 of 10 nM.
With `Cc1cc(-c2cc3c(cn2)OC(C2CCN(C(=O)OC(C)(C)C)CC2)C3)ccn1` (stereo not shown) [Example 52, 4-[5-(2-Methyl-pyridin-4-yl)-2,3-dihydro-furo[2,3-c]pyridin-2-yl]-piperidine-1-carboxylic acid tert-butyl ester] the EC50 was 49 nM.
With `COc1cc(-c2cc3c(cn2)OC(C2CCN(C(=O)OC(C)(C)C)CC2)C3)ccn1` (stereo not shown) [Example 53, 4-[5-(2-Methoxy-pyridin-4-yl)-2,3-dihydro-furo[2,3-c]pyridin-2-yl]-piperidine-1-carboxylic acid tert-butyl ester] the EC50 was 122 nM.
Molecule `CC(C)(C)OC(=O)N1CCC(C2Cc3cc(-c4ccnnc4)ncc3O2)CC1` (stereo not shown) [Example 54, 4-(5-Pyridazin-4-yl-2,3-dihydro-furo[2,3-c]pyridin-2-yl)-piperidine-1-carboxylic acid tert-butyl ester] has an EC50 of 265 nM.
With `CC(C)(C)OC(=O)N1CCC(C2Cc3cc(-c4ccnc(C#N)c4)ncc3O2)CC1` (stereo not shown) [Example 55, 4-[5-(2-Cyano-pyridin-4-yl)-2,3-dihydro-furo[2,3-c]pyridin-2-yl]-piperidine-1-carboxylic acid tert-butyl ester] the EC50 was 16 nM.
